# Measured values from PubChem BioAssay AID328 (DTP/NCI, 2004).
# Values joined by “and” are separate entries in the source; they are usually repeats but may differ in a detail not shown here. Identical values can stand only once. Toxic doses and inconclusive results are not listed.
# Tested on: BDF1 mice, P388 leukemia ip, median survival T/C
# Assay: NCI In Vivo Anticancer Drug Screen. Data for tumor model P388 Leukemia (intraperitoneal) in B6D2F1 (BDF1) mice
# Details: endpoint: median survival time, higher = longer survival
# Procedure, shortened: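 In tumour-bearing mice, survival after compound treatment is set against the vehicle group and given as a quotient.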
# [1] = dose: 25.0 mg/kg/injection, schedule: Q01DX009 (ip), vehicle: Klucel (hydroxypropylcellulose) (HPC)
# [2] = dose: 50.0 mg/kg/injection, schedule: Q01DX009 (ip), vehicle: Klucel (hydroxypropylcellulose) (HPC)
# [3] = dose: 100.0 mg/kg/injection, schedule: Q01DX009 (ip), vehicle: Klucel (hydroxypropylcellulose) (HPC)
# [4] = dose: 100.0 mg/kg/injection, schedule: Q04DX003 (ip), vehicle: Klucel (hydroxypropylcellulose) (HPC)
# [5] = dose: 100.0 mg/kg/injection, schedule: Q01DX009 (ip), vehicle: saline with Tween-80
# [6] = dose: 200.0 mg/kg/injection, schedule: Q01DX009 (ip), vehicle: saline with Tween-80
# [7] = dose: 6.0 mg/kg/injection, schedule: Q01DX009 (ip), vehicle: saline with Tween-80
# [8] = dose: 12.5 mg/kg/injection, schedule: Q04DX003 (ip), vehicle: saline with Tween-80
# [9] = dose: 25.0 mg/kg/injection, schedule: Q01DX009 (ip), vehicle: saline with Tween-80
# [10] = dose: 25.0 mg/kg/injection, schedule: Q04DX003 (ip), vehicle: saline with Tween-80
# [11] = dose: 100.0 mg/kg/injection, schedule: Q04DX003 (ip), vehicle: saline
# [12] = dose: 400.0 mg/kg/injection, schedule: Q01DX009 (ip), vehicle: saline with Tween-80
# [13] = dose: 100.0 mg/kg/injection, schedule: Q04DX003 (ip), vehicle: saline with Tween-80
# [14] = dose: 200.0 mg/kg/injection, schedule: Q04DX003 (ip), vehicle: saline with Tween-80
# [15] = dose: 200.0 mg/kg/injection, schedule: Q04DX003 (ip), vehicle: Klucel (hydroxypropylcellulose) (HPC)
# [16] = dose: 400.0 mg/kg/injection, schedule: Q04DX003 (ip), vehicle: Klucel (hydroxypropylcellulose) (HPC)
smiles,measurement,setting,value
CC(=N/O)/C(C)=N\O,T/C,"dose: 6.25 mg/kg/injection, schedule: Q01DX009 (ip), vehicle: Klucel (hydroxypropylcellulose) (HPC)",110 % of control
same,T/C,[1],95 % of control
same,T/C,"dose: 25.0 mg/kg/injection, schedule: Q04DX003 (ip), vehicle: Klucel (hydroxypropylcellulose) (HPC)",95 % of control
same,T/C,[2],110 % of control and 120 % of control
same,T/C,"dose: 75.0 mg/kg/injection, schedule: Q01DX009 (ip), vehicle: Klucel (hydroxypropylcellulose) (HPC)",100 % of control
same,T/C,[3],120 % of control
same,T/C,[4],95 % of control
same,T/C,"dose: 100.0 mg/kg/injection, schedule: Q04DX003 (ip), vehicle: other",100 % of control
CC1(C)CC(=O)N/C1=C\C1NC(=O)CC1(C)C (centres undefined),T/C,[5],104 % of control
same,T/C,[6],109 % of control
IC1CCCOC1[n+]1ccccc1 (centres undefined),T/C,[7],104 % of control
same,T/C,"dose: 12.0 mg/kg/injection, schedule: Q01DX009 (ip), vehicle: saline with Tween-80",109 % of control
same,T/C,[8],96 % of control
same,T/C,[9],104 % of control
same,T/C,[10],107 % of control
CCOC(=O)c1c[nH]c2ccc(OC)cc2c1=O,T/C,"dose: 25.0 mg/kg/injection, schedule: Q01DX009 (ip), vehicle: saline",111 % of control
same,T/C,"dose: 50.0 mg/kg/injection, schedule: Q01DX009 (ip), vehicle: saline",104 % of control
same,T/C,"dose: 100.0 mg/kg/injection, schedule: Q01DX009 (ip), vehicle: saline",117 % of control
same,T/C,[11],107 % of control
same,T/C,"dose: 200.0 mg/kg/injection, schedule: Q01DX009 (ip), vehicle: saline",113 % of control
same,T/C,"dose: 200.0 mg/kg/injection, schedule: Q04DX003 (ip), vehicle: saline",98 % of control
same,T/C,"dose: 400.0 mg/kg/injection, schedule: Q01DX009 (ip), vehicle: saline",109 % of control
same,T/C,"dose: 400.0 mg/kg/injection, schedule: Q04DX003 (ip), vehicle: saline",100 % of control
COC(=O)C1(C)CCCC2(C)C1CCC13OCC(CC21)C(=C(C)C)C3OC(C)=O (centres undefined),T/C,[5],100 % of control
same,T/C,[6],100 % of control
same,T/C,[12],90 % of control
Cc1c2oc3c(C)ccc(C(=O)NCCCc4ccccc4)c3nc-2c(C(=O)NCCCc2ccccc2)c(N)c1=O,T/C,"dose: 100.0 mg/kg/injection, schedule: Q04DX002 (ip), vehicle: DMSO",100 % of control
same,T/C,"dose: 200.0 mg/kg/injection, schedule: Q04DX002 (ip), vehicle: DMSO",90 % of control
CCCCOP(=S)(N1CC1)N1CC1,T/C,"dose: 1.78 mg/kg/injection, schedule: Q01DX009 (ip), vehicle: saline with Tween-80",113 % of control
same,T/C,"dose: 2.66 mg/kg/injection, schedule: Q01DX009 (ip), vehicle: saline with Tween-80",150 % of control
same,T/C,"dose: 2.66 mg/kg/injection, schedule: Q04DX003 (ip), vehicle: saline with Tween-80",99 % of control
same,T/C,"dose: 4.0 mg/kg/injection, schedule: Q01DX009 (ip), vehicle: saline with Tween-80",186 % of control
same,T/C,"dose: 4.0 mg/kg/injection, schedule: Q04DX003 (ip), vehicle: saline with Tween-80",95 % of control
same,T/C,[7],216 % of control
same,T/C,"dose: 6.6 mg/kg/injection, schedule: Q01DX009 (ip), vehicle: saline with Tween-80",194 % of control
same,T/C,"dose: 10.0 mg/kg/injection, schedule: Q01DX009 (ip), vehicle: saline with Tween-80",211 % of control
same,T/C,"dose: 11.0 mg/kg/injection, schedule: Q01DX009 (ip), vehicle: saline with Tween-80",212 % of control
same,T/C,"dose: 15.0 mg/kg/injection, schedule: Q01DX009 (ip), vehicle: saline with Tween-80",108 % of control
same,T/C,[9],111 % of control
same,T/C,"dose: 37.5 mg/kg/injection, schedule: Q01DX009 (ip), vehicle: saline with Tween-80",95 % of control
same,T/C,"dose: 50.0 mg/kg/injection, schedule: Q01DX009 (ip), vehicle: saline with Tween-80",96 % of control
same,T/C,[13],263 % of control
same,T/C,[14],104 % of control
Cc1ccc(S(=O)(=O)N(CC(=O)O)c2cccc(Cl)c2)cc1,T/C,[3],100 % of control
same,T/C,[4],100 % of control
same,T/C,"dose: 200.0 mg/kg/injection, schedule: Q01DX009 (ip), vehicle: Klucel (hydroxypropylcellulose) (HPC)",100 % of control
same,T/C,[15],104 % of control
same,T/C,"dose: 400.0 mg/kg/injection, schedule: Q01DX009 (ip), vehicle: Klucel (hydroxypropylcellulose) (HPC)",104 % of control
same,T/C,[16],100 % of control
Cc1ccc(S(=O)(=O)Oc2ccc([N+](=O)[O-])cc2[N+](=O)[O-])cc1,T/C,"dose: 25.0 mg/kg/injection, schedule: Q04DX003 (ip), vehicle: saline",104 % of control
same,T/C,"dose: 50.0 mg/kg/injection, schedule: Q04DX003 (ip), vehicle: saline",109 % of control
same,T/C,[11],109 % of control
COc1ccc(C2c3cc4c(c(OC)c3CC3OCC(=O)C32)OCO4)cc1OC (centres undefined),T/C,"dose: 44.8 mg/kg/injection, schedule: Q01DX010 (ip), vehicle: saline",163 % of control
same,T/C,"dose: 50.0 mg/kg/injection, schedule: Q01DX001 (ip), vehicle: saline",100 % of control
same,T/C,"dose: 89.5 mg/kg/injection, schedule: Q01DX010 (ip), vehicle: saline",172 % of control
same,T/C,"dose: 100.0 mg/kg/injection, schedule: Q01DX001 (ip), vehicle: saline",109 % of control
same,T/C,"dose: 100.0 mg/kg/injection, schedule: Q01DX010 (ip), vehicle: other",172 % of control
same,T/C,"dose: 179.0 mg/kg/injection, schedule: Q01DX010 (ip), vehicle: saline",100 % of control
same,T/C,"dose: 200.0 mg/kg/injection, schedule: Q01DX001 (ip), vehicle: other",157 % of control
same,T/C,"dose: 200.0 mg/kg/injection, schedule: Q01DX001 (ip), vehicle: saline",104 % of control
same,T/C,"dose: 400.0 mg/kg/injection, schedule: Q01DX001 (ip), vehicle: other",189 % of control
same,T/C,"dose: 400.0 mg/kg/injection, schedule: Q01DX001 (ip), vehicle: saline",122 % of control
COC(=O)C1CN(c2ccccc2)N=C1C(C)=O (centres undefined),T/C,[13],89 % of control
same,T/C,[14],86 % of control
CCCC(C(=O)c1ccc(OC)cc1)C(O)(C(F)(F)F)C(F)(F)F (centres undefined),T/C,[4],95 % of control
same,T/C,[15],100 % of control
same,T/C,[16],100 % of control
COc1ccc(CC(=O)NCCc2ccc3cc(OC)c(OC)cc3c2)cc1OC,T/C,[5],95 % of control
same,T/C,[6],95 % of control
same,T/C,[12],91 % of control
COc1cc(OC)c(NC(=O)c2ccc([N+](=O)[O-])s2)cc1Cl,T/C,"dose: 25.0 mg/kg/injection, schedule: Q01DX005 (ip), vehicle: saline",102 % of control
same,T/C,"dose: 50.0 mg/kg/injection, schedule: Q01DX005 (ip), vehicle: saline",89 % of control
COc1cc2c(cc1OC)-c1ccc3cc4c(cc3c1N(C)C2)OCO4,T/C,"dose: 10.0 mg/kg/injection, schedule: Q01DX009 (ip), vehicle: other",123 % of control
same,T/C,"dose: 40.0 mg/kg/injection, schedule: Q01DX009 (ip), vehicle: other",155 % of control
O=S(=O)(Nc1ccc(C(F)(F)F)cc1)c1ccc(C(F)(F)F)cc1,T/C,"dose: 50.0 mg/kg/injection, schedule: Q04DX003 (ip), vehicle: Klucel (hydroxypropylcellulose) (HPC)",90 % of control
same,T/C,[4],90 % of control
O=C(O)CCCCc1ccc(CCCCC(=O)O)cc1,T/C,[1],104 % of control
same,T/C,[2],104 % of control
same,T/C,[3],90 % of control
same,T/C,"dose: 150.0 mg/kg/injection, schedule: Q04DX003 (ip), vehicle: Klucel (hydroxypropylcellulose) (HPC)",120 % of control
[N-]=[N+]=NC(=O)c1cccs1,T/C,"dose: 50.0 mg/kg/injection, schedule: Q01DX009 (ip), vehicle: saline + alcohol",99 % of control
CC(=O)OC(CC(O)(C(F)(F)F)C(F)(F)F)C(C)(C)C (centres undefined),T/C,[8],90 % of control
same,T/C,[10],90 % of control
same,T/C,"dose: 50.0 mg/kg/injection, schedule: Q04DX003 (ip), vehicle: saline with Tween-80",90 % of control
